B1: fibroblast growth factor 7: growth factor from Sino Biological (protein, UniProt P21781 32-194, looked up)
Fibroblast growth factor 7: CNDMTPEQMATNVNCSSPERHTRSYDYMEGGDIRVRRLFCRTQWYLRIDKRGKVKGTQEMKNNYNIMEIRTVAVGIVAIKGVESEFYLAMNKEGKLYAKKECNEDCNFKELILENHYNTYASAKWTHNGGEMFVALNQKGIPVRGKKTKKEQKTAHFLPMAIT

tested on: primary laryngeal cancer cells (No. 0S0064); assay: Effects of different factors added to basic medium BM on proliferation of primary laryngeal cancer cells (cell count); type: cell-based, human; settings: factor added to BM, in specific concentration ranges; 10 days of culture on irradiated NIH-3T3; FIGS. 1A-1F
Method: The cultured NIH-3T3 cells (purchased from ATCC, and cultured in DMEM culture solution containing 10% fetal bovine serum) were digested with 0.25% trypsin (purchased from Thermo Fisher), and the digestion was terminated by using DMEM culture solution (purchased from Corning) containing 5%(v/v) fetal bovine serum (purchased from ExCell Biotech Co., Ltd.), 100 U/mL penicillin and 100 μg/mL streptomycin; the resultant was collected into a 15 mL centrifuge tube and centrifuged at 1500 rpm for 4 minutes, and then the supernatant was discarded. The centrifuged cell sediments were resuspended in the above DMEM culture solution containing 10% fetal bovine serum and were counted with a flow imaging counter (JIMBIO FIL, Jiangsu Jimbio Technology Co., Ltd.). The cells were irradiated with γ-ray of 35 Gy irradiation dose, and then were inoculated in a culture vessel at a density of 2×10^4 cells/cm^2. The cells were incubated in a 37° C. incubator until the cells adhere to the wall. Before the inoculation of primary cells, the culture medium was removed from the culture vessel.
Preparation of basic medium (abbreviated as BM): BM was prepared by adding 0.2 vol. % of Primocin (purchased from Invivogen, with a concentration of 50 mg/mL) to the commercial DMEM/F-12 medium to provide a final concentration of 100 μg/mL.
Next, different kinds and concentrations of additive factors (Table 3) were added to the basic medium (BM), so as to prepare culture mediums for laryngeal cancer epithelial cells containing different additive components.
The culture mediums with different components were added at a volume of 500 μl/well to 48-well plates which were pre-laid with γ-ray irradiated NIH-3T3 cells. Laryngeal cancer cells (No. 0S0064) isolated from laryngeal cancer tissue according to the same method as described in Example 1 were inoculated at a cell count of 4×10^4cells/well in the above-mentioned 48-well culture plates which were pre-laid with γ-ray irradiated NIH-3T3 cells. After surface disinfection, the plates were placed in a 37° C., 5% CO2 incubator (purchased from Thermo Fisher), such that equal numbers of freshly isolated laryngeal cancer cells (No. 0S0064) were cultured under different medium formulations. The culture mediums were replaced and the trophoblastic cells were supplemented every 4 days. after the start of culture. After 10 days of culture, cell counts were performed. The basic medium (BM) without addition of any additive was used as the experimental control.
As shown in the figures, adding different concentrations of different factors according to Table 3 to BM would result in different effects on cell proliferation.

Row | Molecule | effect on cell proliferation (ratio of cell number to that in basic medium BM)
1 | CN1C(=O)C(c2c(F)cccc2F)N(C)c2nc(Nc3ccc(S(N)(=O)=O)cc3)ncc21 (stereo not drawn) [Compound 1, 4-((7-(2,6-difluorophenyl)-5,8-dimethyl-6-oxo-5,6,7,8-tetrahydropteridin-2-yl)amino)benzsulfamide] | certain promoting effects on cell proliferation
2 | Cc1cccc(-c2nn(C(=S)Nc3ccccc3)cc2-c2ccnc3ccccc23)n1 [Compound A83-C1, A83-C1, reference compound] | certain promoting effects on cell proliferation
3 | C[C@@H](N)[C@H]1CC[C@H](C(=O)Nc2ccncc2)CC1 [Compound Y27632, Y27632, reference compound] | certain promoting effects on cell proliferation
4 | hepatocyte growth factor: growth factor from Sino Biological | certain promoting effects on cell proliferation
5 | insulin-like growth factor 1: growth factor from Sino Biological | certain promoting effects on cell proliferation
6 | B1 | certain promoting effects on cell proliferation

Source: patent US20230212523A1, “CULTURE MEDIUM FOR LARYNGEAL CANCER EPITHELIAL CELLS, CULTURE METHOD, AND APPLICATION THEREOF” (CAS (Hefei) Institute of Technology Innovation, priority 2020, published 2023)
